Reference: patent publication US20100247461A1, “ANTI-INFLAMMATORY COMPLEXES” (Signum Biosciences, Inc., priority 2009, published 2010)
Like-named read-outs stand apart in the source and are kept apart here.

Legend:
[1] = system: Propionibacterium acnes (strain ATCC 6919); assay: Inhibition of Propionibacterium acnes growth; assay type: cell-based
Procedure: The assay for the inhibition of growth of Propionibacterium acnes bacteria is described elsewhere (Nakatsuji et al., J Invest Dermatol, 2009, 129: 2480-2488). In brief, the strain ATCC 6919 of P. acnes (American Type Culture Collection, Manassas, Va.) was cultured on Brucella agar (R01254, Remel, Lenexa, Kans.) supplemented with 5% (v/v) defibrinated sheep blood, vitamin K (5 mg/ml, Remel, Lenexa, Kans.), and hemin (50 mg/ml, Remel, Lenexa, Kans.), under an anaerobic condition using Gas-Pak (BD, Sparks, Md.) at 37° C. A single colony was inoculated in Reinforced Clostridium Medium (Oxford, Hampshire, England) and cultured at 37° C. under the anaerobic condition. Each of the inventive complexes—AFC-Sr, AFC-Ag and AFC-Zn as well as AFC were dissolved in 100% (v/v) DMSO. Samples of each inventive complex, AFC and a solution of benzoyl peroxide (“BPO”) were then each incubated with an inoculum of P. acnes at a concentration of 1×10^6 CFU per mL in Reinforced Clostridium Medium in a 96-well microplate (100 μL per well) under anaerobic conditions for 72 hours. Samples of each were tested at final concentrations per well of 0.25 μg/mL, 0.5 μg/mL, 1.0 μg/mL, 1.95 μg/mL, 3.9 μg/mL, 7.8 μg/mL, 15.625 μg/mL, 31.25 μg/mL, 62.5 μg/mL, 125 μg/mL, 250μg/mL, and 500 μg/mL. A control well received only 5% (v /v) of DMSO in place of a sample of an inventive complex. After 72 hours incubation under anaerobic conditions, the P. acnes cultures in the 96-well microplate were mixed well and then absorbance readings at 600 nm were taken to determine bacterial growth. […] Growth curves of P. acnes determined for BPO, AFC, AFC-Sr, AFC-Ag and AFC-Zn are depicted in FIG. 3.

[2] = complex and its solutions; compared with ordinary silver salts of carboxylic acids
[3] = system: TPA-treated mouse ears (edema, ear thickness); assay: TPA mouse ear model of inflammation - edema inhibition; assay type: in vivo
Procedure: In brief, mice were sedated and their ears were treated with 1.2 μg/20 uL TPA (i.e., tetradecanoylphorbol-13-acetate). After 5 minutes, we dosed these TPA-treated ears with a single 8 μg/20 μL dose, a 2 μg/20 μL dose, or both doses, of provided complexes. After 24 hours, the mice were sacrificed and edema was measured by taking micrometer readings of each ear. […] These values were corrected for the thickness of normal, non TPA-treated mouse ears of littermate controls.

[4] = system: TPA-treated mouse ears (erythema, Δa* redness); assay: TPA mouse ear model of inflammation - erythema inhibition; assay type: in vivo; details: topical, 24 hours
Procedure: The protocol for measuring erythema inhibition by provided complexes was developed in-house by utilizing the CR-400 chroma meter from Konica Minolta (2). This instrument was used to measure the Δa*redness value from 6 mm biopsy punches taken 24 hours post TPA/compound treatment as described in the edema inhibition section above. […] These values were corrected for the Δa* value of non TPA-treated mouse ears of littermate controls.

[5] = system: MPO (myeloperoxidase), neutrophil marker; assay: TPA mouse ear model of inflammation - MPO inhibition (dermal neutrophil infiltration); assay type: in vivo
Procedure: Briefly, we homogenized 6mm biopsy punches taken from both compound-treated ears as well as TPA-treated and non-treated control groups. We quantitated the levels of MPO by a colorimetric reaction that was measured spectrophotometrically. The percent inhibition of neutrophil infiltration by each complex was determined by comparing the average MPO levels in the presence and absence of these compounds. The calculation for percent inhibition of MPO was determined similar to that as described for calculating the percent edema inhibition, see the Edema Inhibition protocol, supra.

[6] = system: neutrophils; assay: Inhibition of oxidative burst from neutrophils (fMLP-induced superoxide release); assay type: cell-based; details: reduction of superoxide formation, fMLP 0.2 μM, 0 to 100 μM compound; read-out: ED50 Respiratory Burst
Procedure: During inflammation, neutrophils produce and release superoxide ions, otherwise known as oxidative burst response, causing cytotoxicity. […] The superoxide release assay is based on published protocols (Goldstein et al. (1975). J. Clin. Invest. 56(5): 1155-63). Briefly, cells were pre-incubated for 10 min at 37° C. with a mixture of cytochrome c (75 μM final concentration), cytochalasin B (5 μg/ml) with or without superoxide dismutase (SOD) (10 μg/ml) and with or without AFC, AFC-Calcium complex, and AFC-Strontium complex (ranging from 0 to 100 μM). To initiate O2^− release, fMLP (0.2 μM) was added the cells are incubated for 10 min at 37° C. Samples were then placed on ice for 5 min and subsequently centrifuged at 3,000 rpm at 4° C. The supernatant was then analyzed by spectrophotometric measurement at 550 and 556.5 nm. The ED50 values for the reduction of superoxide formation, obtained with AFC, AFC-Calcium complex, and AFC-Strontium complex are depicted in Table 2.

[7] = system: MPO activity (neutrophil infiltration) in P. acnes-injected ear; assay: P. acnes-induced mouse ear model of inflammation - MPO endpoint; assay type: in vivo; details: dose of 0.4 mg/20 μL
Procedure: The methods for a model of P. acnes-inflammation are described elsewhere (Nakatsuji et al., J Invest Dermatol, 2008, 128: 2451-2457).
The protocol for inducing inflammation using P. acnes bacterial challenge on the mouse ear was slightly modified from the method described previously (Natatsuji et al., 2008). Briefly, Swiss Webster (ICR, 6-8 weeks old) mouse ears were injected with living P. acnes culture intradermally. An amount of 20 μl aliquots of living P. acnes (ATCC 6919, 3×10^6 CFU) suspended in PBS was intradermally injected in the central portion of the ear. As a control, 20 μl of PBS was injected into control animals.
To assay for inhibition of dermal neutrophil infiltration by AFC complexes, a standard method was used (see Bradley et al., J Invest Dermatol, 1982,78: 206-209; Young et al., J Invest Dermatol, 1983, 80: 48-52; De Young et al, Agents Actions, 1989, 26: 335-41; and Rao et al., Inflammation, 1993, 17: 723-41). Briefly, 6mm biopsy punches taken from both compound-treated ears as well as non-treated control ears were homogenized in 400 μl of 0.5% hexadecyltrimethylammonium bromide in 50 mM potassium phosphate buffer (pH 6.0) using the Fast Prep 24 (MP Biomedicals, Solon, Ohio). Supernatants were assayed for MPO activity using a model EL 340 96-well plate reader (BioTek Instruments, Winooski, Vt.). The percent inhibition of neutrophil infiltration by each AFC complex was determined by comparing the average MPO levels in the presence and absence of these compounds. The percent inhibition of MPO was determined by taking the average MPO activity of compound-treated ears and dividing it by the average MPO activity of 12 ears that only received the P. acnes challenge and subtracting that value from 100%. These values were corrected for the MPO activity of normal, non P. acnes-treated mouse ears of littermate controls. Summary of MPO activity ranges determined from an MPO activity assay for dexamethasone (administered at a dose of 1.6 mg/20 μL), clobetasol (administered at a dose of 0.1 mg/20 μL), salicylic acid (administered at a dose of 0.4 mg/20 μL), AFC (administered at a dose of 0.4 mg/20 μL), AFC-Strontium complex (administered at a dose of 0.4 mg/20 μL) and SFC-disodium are presented in Table 4. “+” indicates a range of 0-20%, “++” indicates a range of 20-40%, and “+++” indicates >40% inhibition.

[8] = system: TPA-treated mouse ears (edema, ear thickness); assay: TPA mouse ear model of inflammation - edema inhibition; assay type: in vivo; details: topical, 24 hours

Row | Compound | IC50 (inhibition of P. acnes growth) [1] | light and air stability [2] | ED50 for edema inhibition ([3]; TPA-treated mouse ear, topical) | decrease of edema compared with another complex or AFC alone ([3]; mouse ear inflammation assay) | % Erythema Inhibition in the Mouse Ear Inflammation Assay (4% concentration) [4] | ED50 in the MPO assay ([5]; TPA-treated mouse ear, several concentrations, inhibitory activity curves) | ED50 value for inhibiting neutrophil infiltration ([5]; TPA-treated mouse ear, topical) | % MPO Inhibition in the Mouse Ear Inflammation Assay (4% concentration) ([5]; TPA-treated mouse ear, topical, 4% concentration, 24 hours) | MPO inhibition compared with another complex or AFC alone ([5]; mouse ear inflammation assay) | fold lower ED50 value for inhibiting neutrophil infiltration than the AFC oil ([5]; versus AFC oil) | EC50 [6] | IC50 (inhibition of P. acnes growth) ([1]; 72 hours, anaerobic, absorbance 600 nm, 1×10^6 CFU per mL) | MPO % Inhibition [7] | % Edema Inhibition in the Mouse Ear Inflammation Assay (4% concentration) [8]
1 | CC(=O)N[C@@H](CSC/C=C(\C)CC/C=C(\C)CCC=C(C)C)C(=O)[O-].[Ag+] [AFC-Silver complex, Silver (R)-2-acetamido-3-((2E,6E)-3,7,11-trimethyldodeca-2,6,10-trienylthio)propanoate] | 16.9 µg/mL | enhanced light and air stability | – | – | – | – | – | – | – | – | – | – | – | –
2 | CC(=O)N[C@@H](CSC/C=C(\C)CC/C=C(\C)CCC=C(C)C)C(=O)O [AFC-strontium complex, Strontium (R)-2-acetamido-3-((2E,6E)-3,7,11-trimethyldodeca-2,6,10-trienylthio)propanoate] | – | – | 21700 µM | more effective at decreasing edema than the calcium complex | +++ (“+++” indicates >40% inhibition of erythema) | 315 μg/ear | 5020 µM | +++ (“+++” indicates >80% inhibition of MPO) | improved MPO inhibition than the calcium complex | ~8 fold | 35.6 µM | 12.6 µg/mL | +++ (“+++” indicates >40% inhibition) | +++ (“+++” indicates >50% inhibition of edema)
